From patent US9725490B2, “ERAP1-derived peptide and use thereof” (TOKUSHIMA UNIVERSITY, priority 2011, dated 2017)

What was measured:
[1] = system: transcriptional activity of ERα (ERE); test: ERE-luciferase reporter assay in MCF-7 cells; type: cell-based, human; conditions: 10 nM E2 24 hours
Protocol: FIG. 3-2 is a diagram illustrating promotion effect of PHB2 nuclear translocation and suppression effect of the transcriptional activation of ER by ERAP1-peptide treatment. (C) illustrates representative images of stained immune cells, showing the localization of the ERAP1-peptide (HA-tagged ERAP1-peptide) and PHB2. MCF-7 cells were treated with 10 μM HA-tagged ERAP1-peptide for 24 hours in the presence or in the absence of 10 nM E2. After the immobilization, the cells were subjected to immunonfluorescent staining using an anti-HA antibody, an anti-PHB2 antibody and DAPI (for discriminating the nucleus). The arrow indicates the nuclear-translocated ERAP1-peptide. […] Then, immediately, the cells were stimulated with 10 nM E2 for 24 hours. TAM indicates the tamoxifen treatment.
FIG. 3-3 is as diagram illustrating the results of the luciferase assay by which the inhibition effect of the ERAP1-peptide was evaluated. MCF-7 cells temporarily transfected with an ERE-luciferase reporter vector (F) or an AP-1-luciferase reporter vector (F) were treated with the ERAP1-peptide, the scramble peptide or the mutant peptide in the concentrations shown in the […]. Then, immediately, the cells were stimulated with 10 nM E2 for 24 hours. TAM indicates the tamoxifen treatment.
FIG. 4-3 is a diagram illustrating that the ERAP1-peptide promotes nuclear translocation of PHB2. (C) and (D) are figures that show the results of the luciferase assay by which the inhibition effect of the ERAP1-peptide on the ERα transcriptional activity was evaluated. MCF-7 cells temporarily transfected with an ERE-luciferase reporter vector (C) or an AP-1-luciferase reporter vector (D) were treated with the ERAP1-peptide in the concentrations shown in the figure or 10 nM tamoxifen. Then, immediately, the cells were stimulated with 10 nM E2 thr 24 hours.
For ERE reporter assay, MCF-7 cells were transfected with ERE reporter (SABiosciences, Frederick, Md., USA) in accordance with the instruction of the manufacturer. For AP-1 reporter assay, MCF-7 cells were transfected with AP-1 reporter (mouse IL-11 promoter comprising two tandem AP-1 sites subcloned into PGL2-basic vector), c-fos, c-Jun and pRL-TK as an internal standard. After 16 hours from the transfection, the culture medium was exchanged with an assay culture medium (Opti-MEM, 10% FBS, 0.1 mM NEAA, 0.1 mM Sodium pyruvate and 10 μg/ml insulin) After 24 hours from the transfection, the cells were treated with E2 and/or the ERAP1-peptide or 24 hours. The cells were harvested, and the activities of luciferase and Renilla-luciferase were evaluated using Promega dual luciferase reporter assay (Tokyo, Japan). In consideration of the transfection efficiency, all of the data were standardized by the activity of Renilla-luciferase.

[2] = target: T1, binding of inherent ERAP1 and inherent PHB2/REA (Homo sapiens, UniProt Q99623); test: Inhibition of ERAP1-PHB2/REA binding in cells, immunoprecipitation-Western blotting; type: cell-based; conditions: MCF-7 and KPL-3C cells; 10 μM peptide; 10 nM E2 24 hours
T1 construct: endogenous in cells; host or cells: MCF-7 and KPL-3C breast cancer cells
T1 sequence (Q99623 2-299 limits assumed): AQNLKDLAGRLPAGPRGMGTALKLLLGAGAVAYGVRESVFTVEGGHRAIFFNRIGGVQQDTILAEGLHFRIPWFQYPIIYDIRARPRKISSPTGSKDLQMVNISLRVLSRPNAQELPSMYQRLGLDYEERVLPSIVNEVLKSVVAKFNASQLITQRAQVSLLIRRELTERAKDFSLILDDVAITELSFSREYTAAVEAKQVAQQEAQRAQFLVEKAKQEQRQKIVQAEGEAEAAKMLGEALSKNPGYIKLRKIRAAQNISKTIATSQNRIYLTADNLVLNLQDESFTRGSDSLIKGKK

KPL-3C tumor = test: Inhibition of tumor proliferation in vivo, KPL-3C orthotopic transplant; parameters: species or system BALB/c nude mouse; conditions: for Ser39 phosphorylation of PHB2/REA in the tumor: 14 mg/kg; for antitumor effect (tumor volume): E2 6 μg/day, 2 weeks
Protocol: FIG. 11-1 is a diagram illustrating that the ERAP1-peptide inhibits tumor proliferation in a mouse orthotopically transplanted with human breast cancer. (A) and (B) show the influence of the ERAP1-peptide on the tumor volume. […] were subcutaneously transplanted into the breast fat body of as BALB/c nude mouse. The treatment test (5 individuals/group) was initiated (day 0) when the volume of the tumor in the absence E2 reached about 50-80 mm^3. The ERAP1-peptide (14, 35 and 70 mg/kg), the scramble peptide (14, 35 and 70 mg/kg) or tamoxifen (4 mg/kg) was administered every day by intraperitoneal injection to a cancerous mouse orthotopically transplanted with KPL-3C tumor. At the same time, E2 (6 μg/day) was administered subcutaneously every day.
FIG. 11-3 is a diagram illustrating that the ERAP1-peptide inhibits tumor proliferation in a mouse orthotopically transplanted with human breast cancer. […] The mouse was euthanatized on day 14, and the tumor was removed, and the expression level of the downstream genes in each tumor was obtained by quantitative RT-PCR.
FIG. 11-4 is a diagram illustrating that the ERAP1-peptide inhibits tumor proliferation in a mouse orthotopically transplanted with human breast cancer.
FIG. 27 is a diagram illustrating the inhibition effect of the ERAP1-peptide on tumor proliferation in a mouse orthotopically transplanted with human breast cancer. […] KPL-3 cells were subcutaneously transplanted into the breast fat body of a BALB/c nude mouse. The treatment test (5 individuals/group) was initiated (day 0) when the volume of the tumor reached about 50-80 mm^3 in the absence of E2. To a cancerous mouse orthotopically transplanted with KPL-3C tumor, the ERAP1-peptide (Peptide: 14 mg/kg) or the ERAP1-scramble peptide (scrPeptide: 14 mg/kg) was administered every day by intraperitoneal injection. At the same time, E2 (6 μg/day) was administered subcutaneously every day. On day 14, the mouse was euthanatized, and the tumor was removed, and phosphorylation of PHB2/REA (S39) in each tumor was evaluated with immunoblotting analysis. […] The tamoxifen-resistant MCF7-cells (Tam-R MCF-7) were subcutaneously transplanted into the breast fat body of a BALB/c nude mouse, and the treatment test (5 individuals/group) was initiated (day 0) when the volume of the tumor reached about 50-80 mm^3 in the presence of tamoxifen (37 ng/day, 1.85 μg/kg). To a cancerous mouse orthotopically transplanted with Tam-R MCF-7 tumor, the ERAP1-peptide (Peptide: 3.5, 7 and 14 mg/kg) or the ERAP1-scramble peptide (scrPeptide: 14 mg/kg) was administered every day by intraperitoneal injection. At the same time, E2 (6 μg/day) was administered subcutaneously every day: Tam-R MCF-7 heterotransplanted tumor at day 21 and the mean tumor volume±SE (n=5) are shown. *P<0.05, **P<0.01, ***P<0.001.
KPL-3C cell suspension (1×10^7 cells/mouse) was mixed with the same amount of Matrigel (BD). This mixture was injected into the breast fat body of 6 weeks old female BALB/c nude mouse (CLEA Japan, Tokyo, Japan). The mouse was kept in a sterile isolated facility with a cycle of 12 hour light period/12 hour dark period, and freely fed with rodent food and water. The tumor was grown over 1 week until the size thereof reached 50 to 80 mm^3 (calculated as ½×(width×length^2)). Then, the mice were randomly divided into nine treatment groups (5 individuals/group): no treatment group, 6 μg/day E2 treatment group, E2+0.28 mg/day ERAP1-peptide treatment group, E2+0.7 mg/day ERAP1-peptide treatment group, E2+1.4 mg/day ERAP1-peptide treatment group, E2+0.28 mg/day of the scramble peptide treatment group, E2+0.7 mg/day of the scramble peptide treatment group, E2+1.4 mg/day of the scramble peptide treatment group, and E2+83 μg/day tamoxifen treatment group. The mouse was treated every day with 6 μg/day E2 solution (100 μl 2.2×10^−4 M) on the neck skin. […]

ERα phosphorylation = test: E2-induced ERα phosphorylation, Western blotting, MCF-7; type: cell-based, human; conditions: 3 hours to 24 hours after E2
[3] = 14, 35, 70 mg/kg intraperitoneal every day

| Molecule | transcriptional activity of ERα in ERE [1] | inhibition of the binding of inherent ERAP1 and inherent PHB2/REA [2] | Ser39 phosphorylation of PHB2/REA in the tumor (KPL-3C tumor; tumor removed day 14) | change of the body weight (KPL-3C tumor; [3]) | antitumor effect (tumor volume) (KPL-3C tumor; [3]) | expressions of ERα target genes PS2, cyclin D1, C-Myc, SP-1 in the tumor (KPL-3C tumor; tumor removed day 14) | phosphorylations of Akt and MAPK in the tumor (KPL-3C tumor; tumor removed day 14) | E2-dependent phosphorylation of six sites of ERα (ERα phosphorylation) |
| --- | --- | --- | --- | --- | --- | --- | --- | --- |
| CSCC[C@H](NC(=O)[C@H](CCC(N)=O)NC(=O)[C@H](CCCNC(=N)N)NC(=O)[C@H](CCCNC(=N)N)NC(=O)[C@H](CCCNC(=N)N)NC(=O)[C@H](CCCNC(=N)N)NC(=O)[C@H](CCCNC(=N)N)NC(=O)[C@H](CCCNC(=N)N)NC(=O)[C@H](CCCNC(=N)N)NC(=O)[C@H](CCCNC(=N)N)NC(=O)[C@H](CCCNC(=N)N)NC(=O)[C@H](CCCNC(=N)N)NC(=O)[C@@H](N)CCCNC(=N)N)C(=O)N[C@@H](CC(C)C)C(=O)N[C@@H](CO)C(=O)N[C@@H](CC(=O)O)C(=O)N[C@@H](CC(C)C)C(=O)N[C@H](C(=O)N[C@@H](CC(C)C)C(=O)N[C@@H](CCC(N)=O)C(=O)N[C@@H](CC(C)C)C(=O)N[C@@H](CCCNC(=N)N)C(=O)N[C@@H](CCC(N)=O)C(=O)N[C@@H](CCCNC(=N)N)C(=O)O)[C@@H](C)O [ERAP1-peptide] | suppressed the transcriptional activity of ERα | remarkably inhibited | phosphorylation of Ser39 of PHB21/REA was confirmed | change of the body weight was not recognized | the antitumor effect was recognized | completely suppressed | suppression for the phosphorylations of the non-genomic activation signal routes, i.e., Akt and MAPK, was also confirmed | suppressed to the same degree as that of no administration of E2 |
| DRQLQLSTLQRML (SEQ ID NO: 28) (ERAP1-scramble peptide) [reference compound] | no change was recognized | not recognized in any of the cells | the phosphorylation of PHB2/REA was not recognized |  | significant tumor suppression effect was not recognized in any of the doses | suppression for the expression was not recognized |  | the suppression effect was not recognized |
